Data from ChEMBL document CHEMBL4321812, “Structure-based rational design of staurosporine-based fluorescent probe with broad-ranging kinase affinity for kinase panel application” (Bioorg Med Chem Lett, 2019).

Key:
[1] = target: Mitogen-activated protein kinase kinase kinase 7 (Homo sapiens, UniProt O43318); assay: Binding affinity to recombinant full-length N-terminal His-FLAG-tagged MAP3K7 (unknown origin) expressed in baculovirus infected Sf9 insect cells incubated for 1 hr by TR-FRET assay
[2] = target: Dual specificity protein kinase CLK2 (Homo sapiens, UniProt P49760); assay: Binding affinity to recombinant full-length N-terminal His-FLAG-GST-tagged CLK2 (unknown origin) expressed in baculovirus infected Sf9 insect cells incubated for 1 hr by TR-FRET assay
LIM domain kinase 1 = LIM domain kinase 1 (Homo sapiens, UniProt P53667); assay: Binding affinity to truncated human N-terminal GST-tagged LIMK1 (285 to 638 residues) expressed in baculovirus expression system using cofilin2 as substrate incubated for 1 hr by TR-FRET assay
[3] = target: Protein kinase C delta type (Homo sapiens, UniProt Q05655); assay: Binding affinity to recombinant human full length N-terminal GST-tagged PRKCD expressed in baculovirus expression system using PKC peptide as substrate incubated for 1 hr by TR-FRET assay
Sequence of Protein kinase C delta type (Q05655 whole entry, the tested form may be a part): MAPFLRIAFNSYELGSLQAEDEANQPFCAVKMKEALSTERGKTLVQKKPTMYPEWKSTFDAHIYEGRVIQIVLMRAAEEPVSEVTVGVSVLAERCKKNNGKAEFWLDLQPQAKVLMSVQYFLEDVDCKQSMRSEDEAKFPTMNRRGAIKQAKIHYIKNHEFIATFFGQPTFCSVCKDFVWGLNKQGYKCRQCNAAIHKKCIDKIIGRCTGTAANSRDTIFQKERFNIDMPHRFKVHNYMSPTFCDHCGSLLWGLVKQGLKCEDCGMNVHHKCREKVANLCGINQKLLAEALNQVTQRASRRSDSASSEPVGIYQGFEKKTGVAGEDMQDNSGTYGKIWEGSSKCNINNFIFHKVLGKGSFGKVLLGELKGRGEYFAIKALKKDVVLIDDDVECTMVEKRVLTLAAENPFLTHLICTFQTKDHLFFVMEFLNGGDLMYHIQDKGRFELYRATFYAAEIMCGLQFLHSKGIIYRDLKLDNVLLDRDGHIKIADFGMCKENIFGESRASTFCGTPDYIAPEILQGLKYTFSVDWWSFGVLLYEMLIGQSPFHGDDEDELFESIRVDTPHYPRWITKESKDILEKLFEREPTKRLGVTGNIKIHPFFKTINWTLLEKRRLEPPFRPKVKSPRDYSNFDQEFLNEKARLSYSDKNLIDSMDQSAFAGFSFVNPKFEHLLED

[4] = target: STE20-like serine/threonine-protein kinase (Homo sapiens, UniProt Q9H2G2); assay: Binding affinity to recombinant N-terminal His-FLAG-GST-tagged SLK (unknown origin) (1 to 1152 residues) expressed in baculovirus infected Sf9 insect cells incubated for 1 hr by TR-FRET assay
[5] = target: Protein kinase C epsilon type (Homo sapiens, UniProt Q02156); assay: Binding affinity to recombinant human full length N-terminal GST-tagged PRKCE expressed in baculovirus expression system using PKC peptide as substrate incubated for 1 hr by TR-FRET assay
Sequence of Protein kinase C epsilon type (Q02156 whole entry): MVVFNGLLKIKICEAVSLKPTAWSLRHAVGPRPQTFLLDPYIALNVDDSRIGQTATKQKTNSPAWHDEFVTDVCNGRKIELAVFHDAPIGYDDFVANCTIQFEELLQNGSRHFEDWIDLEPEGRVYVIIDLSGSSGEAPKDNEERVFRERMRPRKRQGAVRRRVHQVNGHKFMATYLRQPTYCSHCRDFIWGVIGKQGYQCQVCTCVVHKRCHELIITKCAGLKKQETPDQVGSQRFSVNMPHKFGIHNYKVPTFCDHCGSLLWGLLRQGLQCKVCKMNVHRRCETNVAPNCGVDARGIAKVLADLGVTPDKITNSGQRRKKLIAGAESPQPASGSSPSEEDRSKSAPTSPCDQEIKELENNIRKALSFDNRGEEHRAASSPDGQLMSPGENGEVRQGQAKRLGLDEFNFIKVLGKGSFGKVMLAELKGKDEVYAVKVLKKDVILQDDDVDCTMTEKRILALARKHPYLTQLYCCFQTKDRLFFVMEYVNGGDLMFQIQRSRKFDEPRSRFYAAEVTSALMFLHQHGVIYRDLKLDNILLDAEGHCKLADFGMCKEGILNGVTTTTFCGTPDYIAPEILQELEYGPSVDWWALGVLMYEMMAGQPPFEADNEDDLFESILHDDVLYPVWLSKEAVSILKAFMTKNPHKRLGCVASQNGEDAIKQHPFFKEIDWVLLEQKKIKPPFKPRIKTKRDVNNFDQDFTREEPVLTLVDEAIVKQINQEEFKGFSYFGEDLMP

[6] = target: Serine/threonine-protein kinase 33 (Homo sapiens, UniProt Q9BYT3); assay: Binding affinity to recombinant full-length N-terminal His-FLAG-GST-tagged STK33 (unknown origin) expressed in baculovirus infected Sf9 insect cells incubated for 1 hr by TR-FRET assay
[7] = target: Serine/threonine-protein kinase 3 (Homo sapiens, UniProt Q13188); assay: Binding affinity to recombinant full-length N-terminal His-FLAG-GST-tagged STK3 (unknown origin) expressed in baculovirus infected Sf9 insect cells incubated for 1 hr by TR-FRET assay
[8] = target: Protein kinase C theta type (Homo sapiens, UniProt Q04759); assay: Binding affinity to recombinant full-length N-terminal His-GST-tagged PRKCQ (unknown origin) expressed in baculovirus infected Sf9 insect cells incubated for 1 hr by TR-FRET assay
[9] = target: Glycogen synthase kinase-3 beta (Homo sapiens, UniProt P49841); assay: Binding affinity to recombinant full-length N-terminal His-FLAG-GST-tagged GSK3B (unknown origin) expressed in baculovirus infected Sf9 insect cells incubated for 1 hr by TR-FRET assay
[10] = target: Non-receptor tyrosine-protein kinase TNK1 (Homo sapiens, UniProt Q13470); assay: Binding affinity to recombinant human N-terminal GST-tagged TNK1 (106 to 390 residues) expressed in baculovirus expression system using CSKtide as substrate incubated for 1 hr by TR-FRET assay
[11] = target: Fibroblast growth factor receptor 3 (Homo sapiens, UniProt P22607); assay: Binding affinity to recombinant N-terminal His-FLAG-GST-tagged FGFR3 (unknown origin) (436 to 806 residues) expressed in baculovirus infected Sf9 insect cells incubated for 1 hr by TR-FRET assay
Sequence of Fibroblast growth factor receptor 3 (P22607 whole entry, the tested form may be a part): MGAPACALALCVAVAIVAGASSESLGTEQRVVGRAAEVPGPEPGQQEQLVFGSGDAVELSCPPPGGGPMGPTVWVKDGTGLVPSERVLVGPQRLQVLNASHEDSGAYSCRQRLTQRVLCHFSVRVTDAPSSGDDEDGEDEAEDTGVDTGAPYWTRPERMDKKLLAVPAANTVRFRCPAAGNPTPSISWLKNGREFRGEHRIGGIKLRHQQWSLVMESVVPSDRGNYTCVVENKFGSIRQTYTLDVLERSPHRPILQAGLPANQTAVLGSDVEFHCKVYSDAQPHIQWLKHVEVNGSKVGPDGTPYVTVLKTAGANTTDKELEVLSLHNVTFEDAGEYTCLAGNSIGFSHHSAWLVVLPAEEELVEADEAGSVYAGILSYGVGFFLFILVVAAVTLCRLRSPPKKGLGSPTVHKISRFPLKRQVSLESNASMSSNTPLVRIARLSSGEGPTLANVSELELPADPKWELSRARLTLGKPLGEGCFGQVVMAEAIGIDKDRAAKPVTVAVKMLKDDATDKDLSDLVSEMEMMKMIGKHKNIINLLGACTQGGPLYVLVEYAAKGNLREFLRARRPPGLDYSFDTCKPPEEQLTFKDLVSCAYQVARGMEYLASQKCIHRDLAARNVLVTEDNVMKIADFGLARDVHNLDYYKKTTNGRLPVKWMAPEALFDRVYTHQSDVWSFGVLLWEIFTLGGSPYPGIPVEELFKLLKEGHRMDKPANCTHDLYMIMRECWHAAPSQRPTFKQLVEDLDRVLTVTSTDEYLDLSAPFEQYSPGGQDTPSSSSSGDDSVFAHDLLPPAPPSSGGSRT

[12] = target: Calcium/calmodulin-dependent protein kinase type II subunit delta (Homo sapiens, UniProt Q13557); assay: Binding affinity to recombinant human full-length N-terminal GST-tagged CAMK2D expressed in baculovirus expression system using GS peptide as substrate incubated for 1 hr by TR-FRET assay
[13] = target: Dual specificity protein kinase CLK4 (Homo sapiens, UniProt Q9HAZ1); assay: Binding affinity to recombinant human full length N-terminal GST-tagged CLK4 expressed in baculovirus expression system incubated for 1 hr by TR-FRET assay
[14] = target: Calcium/calmodulin-dependent protein kinase kinase 2 (Homo sapiens, UniProt Q96RR4); assay: Binding affinity to recombinant full-length N-terminal His-FLAG-GST-tagged CAMKK2 (unknown origin) expressed in baculovirus infected Sf9 insect cells incubated for 1 hr in presence of calmodulin by TR-FRET assay
[15] = target: Tyrosine-protein kinase BTK (Homo sapiens, UniProt Q06187); assay: Binding affinity to recombinant human full-length N-terminal GST-tagged BTK expressed in baculovirus expression system using srctide as substrate incubated for 1 hr by TR-FRET assay
Sequence of Tyrosine-protein kinase BTK (Q06187 whole entry): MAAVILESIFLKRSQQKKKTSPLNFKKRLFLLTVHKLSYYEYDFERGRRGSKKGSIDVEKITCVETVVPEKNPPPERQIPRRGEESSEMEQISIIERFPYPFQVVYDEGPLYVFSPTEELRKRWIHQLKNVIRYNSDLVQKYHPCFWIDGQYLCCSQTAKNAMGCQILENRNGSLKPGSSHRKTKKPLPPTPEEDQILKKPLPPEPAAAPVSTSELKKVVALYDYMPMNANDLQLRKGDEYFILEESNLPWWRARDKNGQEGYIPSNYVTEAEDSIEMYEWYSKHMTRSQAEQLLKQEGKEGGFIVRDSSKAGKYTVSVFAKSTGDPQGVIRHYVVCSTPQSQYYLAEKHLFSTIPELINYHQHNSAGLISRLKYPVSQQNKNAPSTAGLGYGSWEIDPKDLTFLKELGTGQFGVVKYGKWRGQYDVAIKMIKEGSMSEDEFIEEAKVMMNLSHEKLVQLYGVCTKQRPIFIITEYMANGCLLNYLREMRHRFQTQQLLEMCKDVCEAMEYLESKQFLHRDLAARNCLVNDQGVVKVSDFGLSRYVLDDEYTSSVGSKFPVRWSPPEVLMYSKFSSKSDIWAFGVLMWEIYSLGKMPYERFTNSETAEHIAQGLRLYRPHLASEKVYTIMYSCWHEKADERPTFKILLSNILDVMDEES

[16] = target: Serine/threonine-protein kinase SIK1 (Homo sapiens, UniProt P57059); assay: Binding affinity to recombinant full-length N-terminal His-FLAG-tagged SIK1 (unknown origin) expressed in baculovirus infected Sf9 insect cells incubated for 1 hr by TR-FRET assay
[17] = target: TRAF2 and NCK-interacting protein kinase (Homo sapiens, UniProt Q9UKE5); assay: Binding affinity to recombinant full-length N-terminal His-FLAG-GST-tagged TNIK (unknown origin) (1 to 314 residues) expressed in baculovirus infected Sf9 insect cells incubated for 1 hr by TR-FRET assay
[18] = target: Rho-associated protein kinase 2 (Homo sapiens, UniProt O75116); assay: Binding affinity to recombinant full-length N-terminal His-FLAG-GST-tagged ROCK2 (unknown origin) (1 to 553 residues) expressed in baculovirus infected Sf9 insect cells incubated for 1 hr by TR-FRET assay
[19] = target: Ribosomal protein S6 kinase alpha-6 (Homo sapiens, UniProt Q9UK32); assay: Binding affinity to recombinant full-length N-terminal His-FLAG-tagged RPS6KA6 (unknown origin) expressed in baculovirus infected Sf9 insect cells incubated for 1 hr by TR-FRET assay
Sequence of Ribosomal protein S6 kinase alpha-6 (Q9UK32 whole entry): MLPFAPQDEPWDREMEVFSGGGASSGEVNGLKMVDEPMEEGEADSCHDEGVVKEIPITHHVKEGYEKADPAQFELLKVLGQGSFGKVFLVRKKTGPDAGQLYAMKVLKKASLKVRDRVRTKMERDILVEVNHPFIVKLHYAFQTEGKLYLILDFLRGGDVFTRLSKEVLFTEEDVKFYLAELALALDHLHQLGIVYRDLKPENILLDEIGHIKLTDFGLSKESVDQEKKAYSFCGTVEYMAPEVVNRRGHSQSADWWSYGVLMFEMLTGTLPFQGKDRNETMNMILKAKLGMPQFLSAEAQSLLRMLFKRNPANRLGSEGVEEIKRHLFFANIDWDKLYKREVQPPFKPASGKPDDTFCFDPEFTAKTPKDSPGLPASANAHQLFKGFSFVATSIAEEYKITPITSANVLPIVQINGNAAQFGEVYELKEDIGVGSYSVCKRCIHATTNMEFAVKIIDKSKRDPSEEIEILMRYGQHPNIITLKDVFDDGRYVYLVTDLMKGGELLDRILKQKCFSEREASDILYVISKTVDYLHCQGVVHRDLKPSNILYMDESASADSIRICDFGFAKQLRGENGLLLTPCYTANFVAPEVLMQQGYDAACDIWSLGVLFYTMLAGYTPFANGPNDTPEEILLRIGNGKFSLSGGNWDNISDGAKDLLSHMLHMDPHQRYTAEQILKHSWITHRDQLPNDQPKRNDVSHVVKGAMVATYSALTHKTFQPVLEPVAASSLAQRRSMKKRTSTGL

[20] = target: BMP-2-inducible protein kinase (Homo sapiens, UniProt Q9NSY1); assay: Binding affinity to recombinant full-length N-terminal His-FLAG-GST-tagged BMP2K (unknown origin) expressed in baculovirus infected Sf9 insect cells incubated for 1 hr by TR-FRET assay
[21] = target: Serine/threonine-protein kinase 32A (Homo sapiens, UniProt Q8WU08); assay: Binding affinity to recombinant full-length N-terminal His-FLAG-tagged STK32A (unknown origin) expressed in baculovirus infected Sf9 insect cells incubated for 1 hr by TR-FRET assay
Sequence of Serine/threonine-protein kinase 32A (Q8WU08 whole entry): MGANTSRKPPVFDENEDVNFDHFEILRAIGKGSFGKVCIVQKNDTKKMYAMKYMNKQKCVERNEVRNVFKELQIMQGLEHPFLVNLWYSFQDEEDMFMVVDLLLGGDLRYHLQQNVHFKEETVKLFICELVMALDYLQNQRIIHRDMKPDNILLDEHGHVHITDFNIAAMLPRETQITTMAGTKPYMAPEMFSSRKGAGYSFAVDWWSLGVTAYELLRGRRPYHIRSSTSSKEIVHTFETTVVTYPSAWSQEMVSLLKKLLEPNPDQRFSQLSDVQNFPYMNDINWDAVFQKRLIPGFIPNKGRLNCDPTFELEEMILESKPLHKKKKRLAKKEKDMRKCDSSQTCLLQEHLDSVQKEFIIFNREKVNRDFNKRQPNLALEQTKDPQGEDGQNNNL

[22] = target: Serine/threonine-protein kinase MARK1 (Homo sapiens, UniProt Q9P0L2); assay: Binding affinity to recombinant full-length N-terminal His-FLAG-tagged MARK1 (unknown origin) expressed in baculovirus infected Sf9 insect cells incubated for 1 hr by TR-FRET assay
[23] = target: Serine/threonine-protein kinase 4 (Homo sapiens, UniProt Q13043); assay: Binding affinity to recombinant full-length N-terminal His-FLAG-GST-tagged STK4 (unknown origin) expressed in baculovirus infected Sf9 insect cells incubated for 1 hr by TR-FRET assay
Sequence of Serine/threonine-protein kinase 4 (Q13043 whole entry): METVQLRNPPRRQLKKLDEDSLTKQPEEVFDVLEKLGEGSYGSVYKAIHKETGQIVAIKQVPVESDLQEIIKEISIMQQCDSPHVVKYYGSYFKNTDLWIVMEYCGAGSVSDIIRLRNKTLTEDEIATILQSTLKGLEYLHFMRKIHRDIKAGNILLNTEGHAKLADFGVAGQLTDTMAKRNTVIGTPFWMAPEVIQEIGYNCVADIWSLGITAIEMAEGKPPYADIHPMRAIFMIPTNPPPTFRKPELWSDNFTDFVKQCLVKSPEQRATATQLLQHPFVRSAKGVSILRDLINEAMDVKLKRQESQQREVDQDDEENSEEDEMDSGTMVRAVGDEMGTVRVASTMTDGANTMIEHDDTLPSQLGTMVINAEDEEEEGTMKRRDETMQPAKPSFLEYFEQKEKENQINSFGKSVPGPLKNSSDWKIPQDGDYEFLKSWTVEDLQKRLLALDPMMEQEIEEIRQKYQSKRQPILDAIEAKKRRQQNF

[24] = target: Tyrosine-protein kinase Fgr (Homo sapiens, UniProt P09769); assay: Binding affinity to recombinant full-length N-terminal His-FLAG-tagged FGR (unknown origin) expressed in baculovirus infected Sf9 insect cells incubated for 1 hr by TR-FRET assay
Sequence of Tyrosine-protein kinase Fgr (P09769 whole entry): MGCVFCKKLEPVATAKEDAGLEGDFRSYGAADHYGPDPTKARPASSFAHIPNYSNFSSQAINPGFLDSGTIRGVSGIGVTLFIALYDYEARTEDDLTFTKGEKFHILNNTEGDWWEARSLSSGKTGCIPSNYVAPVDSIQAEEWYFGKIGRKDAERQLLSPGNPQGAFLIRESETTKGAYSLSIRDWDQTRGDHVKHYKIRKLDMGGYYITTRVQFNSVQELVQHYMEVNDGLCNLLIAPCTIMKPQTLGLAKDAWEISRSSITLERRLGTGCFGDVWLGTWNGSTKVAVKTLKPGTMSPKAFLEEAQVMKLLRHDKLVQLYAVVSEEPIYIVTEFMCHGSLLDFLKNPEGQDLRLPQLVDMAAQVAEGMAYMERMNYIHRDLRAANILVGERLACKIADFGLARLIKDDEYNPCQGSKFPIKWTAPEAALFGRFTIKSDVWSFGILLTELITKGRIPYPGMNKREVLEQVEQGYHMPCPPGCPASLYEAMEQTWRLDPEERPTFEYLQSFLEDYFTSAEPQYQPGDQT

## CO[C@@H]1[C@H](NCCOCCOCCOCCNC(=O)CCC2=[N+]3C(=Cc4c(C)cc(C)n4[B-]3(F)F)C=C2)C[C@H]2O[C@]1(C)n1c3ccccc3c3c4c(c5c6ccccc6n2c5c31)C(=O)NC4
[1]
  Kd: 44 nM
[2]
  Kd: 318 nM
LIM domain kinase 1
  Kd: 6 nM
[3]
  Kd: 13 nM
[4]
  Kd: 5 nM
[5]
  Kd: 41 nM
[6]
  Kd: 8 nM
[7]
  Kd: 6 nM
[8]
  Kd: 28 nM
[9]
  Kd: 230 nM
[10]
  Kd: 4 nM
[11]
  Kd: 409 nM
[12]
  Kd: 4 nM
[13]
  Kd: 90 nM
[14]
  Kd: 2 nM
[15]
  Kd: 374 nM
[16]
  Kd: 3 nM
[17]
  Kd: 121 nM
[18]
  Kd: 23 nM
[19]
  Kd: 21 nM
[20]
  Kd: 24 nM
[21]
  Kd: 1540 nM
[22]
  Kd: 9 nM
[23]
  Kd: 7 nM
[24]
  Kd: 101 nM

## CO[C@@H]1[C@H](N(C)CCOCCOCCOCCNC(=O)CCC2=[N+]3C(=Cc4c(C)cc(C)n4[B-]3(F)F)C=C2)C[C@H]2O[C@]1(C)n1c3ccccc3c3c4c(c5c6ccccc6n2c5c31)C(=O)NC4
[1]
  Kd: 60 nM
[2]
  Kd: 396 nM
LIM domain kinase 1
  Kd: 32 nM
[3]
  Kd: 3 nM
[4]
  Kd: 6 nM
[5]
  Kd: 15 nM
[6]
  Kd: 6 nM
[7]
  Kd: 3 nM
[8]
  Kd: 19 nM
[9]
  Kd: 148 nM
[10]
  Kd: 13 nM
[11]
  Kd: 848 nM
[12]
  Kd: 6 nM
[13]
  Kd: 81 nM
[14]
  Kd: 6 nM
[15]
  Kd: 437 nM
[16]
  Kd: 3 nM
[17]
  Kd: 97 nM
[18]
  Kd: 16 nM
[19]
  Kd: 14 nM
[20]
  Kd: 19 nM
[21]
  Kd: 1750 nM
[22]
  Kd: 3 nM
[23]
  Kd: 4 nM
[24]
  Kd: 119 nM
